Data: PubChem BioAssay (NCI)
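Where inhibition never reached the appropriate level, the endpoint shown equals the highest concentration tested. Otherwise, values were interpolated linearly from a five-concentration, 48-hour dose response in 96-well plates. GI50 is the concentration that inhibits growth by half. Definition used: TGI = concentration required for complete inhibition of growth.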

Key:
Experiment in all cases: growth of human tumour cells (NCI), 48 h; in the data active = GI50 below about 0.43 µM; inactive = the rest
786-0 renal = system: 786-0 renal
A498 renal = system: A498 renal
A549 NSCLC = system: A549 NSCLC
ACHN renal = system: ACHN renal
BT-549 breast = system: BT-549 breast
CAKI-1 renal = system: CAKI-1 renal
CCRF-CEM leukemia = system: CCRF-CEM leukemia
COLO 205 colon = system: COLO 205 colon
DU-145 prostate = system: DU-145 prostate
EKVX NSCLC = system: EKVX NSCLC
HCC-2998 colon = system: HCC-2998 colon
HCT-116 colon = system: HCT-116 colon
HCT-15 colon = system: HCT-15 colon
HL-60(TB) leukemia = system: HL-60(TB) leukemia
HOP-62 NSCLC = system: HOP-62 NSCLC
HOP-92 NSCLC = system: HOP-92 NSCLC
HS 578T breast = system: HS 578T breast
HT29 colon = system: HT29 colon
IGROV1 ovarian = system: IGROV1 ovarian
K-562 leukemia = system: K-562 leukemia
KM12 colon = system: KM12 colon
LOX IMVI melanoma = system: LOX IMVI melanoma
M14 melanoma = system: M14 melanoma
MALME-3M melanoma = system: MALME-3M melanoma
MCF7 breast = system: MCF7 breast
MDA-MB-231 breast = system: MDA-MB-231 breast
MDA-MB-435 = system: MDA-MB-435
MOLT-4 leukemia = system: MOLT-4 leukemia
NCI-H226 lung = system: NCI-H226 lung
NCI-H23 lung = system: NCI-H23 lung
NCI-H460 lung = system: NCI-H460 lung
NCI-H522 lung = system: NCI-H522 lung
NCI/ADR-RES ovarian = system: NCI/ADR-RES ovarian
OVCAR-3 ovarian = system: OVCAR-3 ovarian
OVCAR-4 ovarian = system: OVCAR-4 ovarian
OVCAR-5 ovarian = system: OVCAR-5 ovarian
OVCAR-8 ovarian = system: OVCAR-8 ovarian
PC-3 prostate = system: PC-3 prostate
RPMI-8226 leukemia = system: RPMI-8226 leukemia
RXF 393 renal = system: RXF 393 renal
SF-268 CNS = system: SF-268 CNS
SF-295 CNS = system: SF-295 CNS
SF-539 CNS = system: SF-539 CNS
SK-MEL-2 melanoma = system: SK-MEL-2 melanoma
SK-MEL-28 melanoma = system: SK-MEL-28 melanoma
SK-OV-3 ovarian = system: SK-OV-3 ovarian
SN12C renal = system: SN12C renal
SNB-19 CNS = system: SNB-19 CNS
SNB-75 CNS = system: SNB-75 CNS
SR leukemia = system: SR leukemia
SW-620 colon = system: SW-620 colon
T-47D breast = system: T-47D breast
U251 CNS = system: U251 CNS
UACC-257 melanoma = system: UACC-257 melanoma
UACC-62 melanoma = system: UACC-62 melanoma
SK-MEL-5 melanoma = system: SK-MEL-5 melanoma
TK-10 renal = system: TK-10 renal
UO-31 renal = system: UO-31 renal

COc1ccc(OCC(O)CN2CCN(c3ccc(Cl)cc3)CC2)cc1 (configuration not stated)
inactive: GI50 (786-0 renal) > 100 µM | GI50 (A498 renal) > 100 µM | GI50 (A549 NSCLC) > 100 µM | GI50 (ACHN renal) 65.9 µM | GI50 (BT-549 breast) > 100 µM | GI50 (CAKI-1 renal) 8.86 µM | GI50 (CCRF-CEM leukemia) > 100 µM | GI50 (COLO 205 colon) > 100 µM | GI50 (DU-145 prostate) > 100 µM | GI50 (EKVX NSCLC) 9.82 µM | GI50 (HCC-2998 colon) > 100 µM | GI50 (HCT-116 colon) > 100 µM | GI50 (HCT-15 colon) > 100 µM | GI50 (HL-60(TB) leukemia) > 100 µM | GI50 (HOP-62 NSCLC) 28.4 µM | GI50 (HOP-92 NSCLC) 3.99 µM | GI50 (HS 578T breast) > 100 µM | GI50 (HT29 colon) > 100 µM | GI50 (IGROV1 ovarian) 18.1 µM | GI50 (K-562 leukemia) > 100 µM | GI50 (KM12 colon) > 100 µM | GI50 (LOX IMVI melanoma) > 100 µM | GI50 (M14 melanoma) > 100 µM | GI50 (MALME-3M melanoma) 59.7 µM | GI50 (MCF7 breast) > 100 µM | GI50 (MDA-MB-231 breast) 66.1 µM | GI50 (MDA-MB-435) > 100 µM | GI50 (MOLT-4 leukemia) > 100 µM | GI50 (NCI-H226 lung) 37.9 µM | GI50 (NCI-H23 lung) > 100 µM | GI50 (NCI-H460 lung) > 100 µM | GI50 (NCI-H522 lung) 69.3 µM | GI50 (NCI/ADR-RES ovarian) > 100 µM | GI50 (OVCAR-3 ovarian) > 100 µM | GI50 (OVCAR-4 ovarian) > 100 µM | GI50 (OVCAR-5 ovarian) > 100 µM | GI50 (OVCAR-8 ovarian) 88.5 µM | GI50 (PC-3 prostate) > 100 µM | GI50 (RPMI-8226 leukemia) > 100 µM | GI50 (RXF 393 renal) 79.1 µM | GI50 (SF-268 CNS) 80.6 µM | GI50 (SF-295 CNS) > 100 µM | GI50 (SF-539 CNS) > 100 µM | GI50 (SK-MEL-2 melanoma) > 100 µM | GI50 (SK-MEL-28 melanoma) > 100 µM | GI50 (SK-OV-3 ovarian) > 100 µM | GI50 (SN12C renal) > 100 µM | GI50 (SNB-19 CNS) 77.7 µM | GI50 (SNB-75 CNS) 17 µM | GI50 (SR leukemia) > 100 µM | GI50 (SW-620 colon) > 100 µM | GI50 (T-47D breast) > 100 µM | GI50 (U251 CNS) 79.3 µM | GI50 (UACC-257 melanoma) > 100 µM | GI50 (UACC-62 melanoma) > 100 µM
83.5 µM: TGI (SNB-75 CNS)
> 100 µM: TGI (786-0 renal) | TGI (A498 renal) | TGI (A549 NSCLC) | TGI (ACHN renal) | TGI (BT-549 breast) | TGI (CAKI-1 renal) | TGI (CCRF-CEM leukemia) | TGI (COLO 205 colon) | TGI (DU-145 prostate) | TGI (EKVX NSCLC) | TGI (HCC-2998 colon) | TGI (HCT-116 colon) | TGI (HCT-15 colon) | TGI (HL-60(TB) leukemia) | TGI (HOP-62 NSCLC) | TGI (HOP-92 NSCLC) | TGI (HS 578T breast) | TGI (HT29 colon) | TGI (IGROV1 ovarian) | TGI (K-562 leukemia) | TGI (KM12 colon) | TGI (LOX IMVI melanoma) | TGI (M14 melanoma) | TGI (MALME-3M melanoma) | TGI (MCF7 breast) | TGI (MDA-MB-231 breast) | TGI (MDA-MB-435) | TGI (MOLT-4 leukemia) | TGI (NCI-H226 lung) | TGI (NCI-H23 lung) | TGI (NCI-H460 lung) | TGI (NCI-H522 lung) | TGI (NCI/ADR-RES ovarian) | TGI (OVCAR-3 ovarian) | TGI (OVCAR-4 ovarian) | TGI (OVCAR-5 ovarian) | TGI (OVCAR-8 ovarian) | TGI (PC-3 prostate) | TGI (RPMI-8226 leukemia) | TGI (RXF 393 renal) | TGI (SF-268 CNS) | TGI (SF-295 CNS) | TGI (SF-539 CNS) | TGI (SK-MEL-2 melanoma) | TGI (SK-MEL-28 melanoma) | TGI (SK-OV-3 ovarian) | TGI (SN12C renal) | TGI (SNB-19 CNS) | TGI (SR leukemia) | TGI (SW-620 colon) | TGI (T-47D breast) | TGI (U251 CNS) | TGI (UACC-257 melanoma) | TGI (UACC-62 melanoma)

C#CC#CC#CC#CC#CC#CC#CC#CC[C@@H]1OC[C@@H](COC(=O)O[C@@H](C(=O)O[C@H]2C[C@@]3(O)[C@@H](OC(=O)c4ccccc4)[C@@H]4[C@]5(OC(C)=O)CO[C@@H]5C[C@H](O)[C@@]4(C)C(=O)[C@H](OC(C)=O)C(=C2C)C3(C)C)[C@@H](NC(=O)c2ccccc2)c2ccccc2)O1
> 8.14 µM: TGI (HS 578T breast)
2.41 µM: TGI (SF-295 CNS)
> 33.3 µM: TGI (786-0 renal) | TGI (A549 NSCLC) | TGI (ACHN renal) | TGI (BT-549 breast) | TGI (CAKI-1 renal) | TGI (CCRF-CEM leukemia) | TGI (COLO 205 colon) | TGI (DU-145 prostate) | TGI (EKVX NSCLC) | TGI (HCT-116 colon) | TGI (HCT-15 colon) | TGI (HL-60(TB) leukemia) | TGI (HOP-62 NSCLC) | TGI (HOP-92 NSCLC) | TGI (HT29 colon) | TGI (IGROV1 ovarian) | TGI (K-562 leukemia) | TGI (KM12 colon) | TGI (LOX IMVI melanoma) | TGI (MALME-3M melanoma) | TGI (MCF7 breast) | TGI (MDA-MB-231 breast) | TGI (MOLT-4 leukemia) | TGI (NCI-H226 lung) | TGI (NCI-H23 lung) | TGI (NCI-H460 lung) | TGI (NCI/ADR-RES ovarian) | TGI (OVCAR-4 ovarian) | TGI (OVCAR-5 ovarian) | TGI (OVCAR-8 ovarian) | TGI (PC-3 prostate) | TGI (RPMI-8226 leukemia) | TGI (SF-268 CNS) | TGI (SK-MEL-2 melanoma) | TGI (SK-OV-3 ovarian) | TGI (SN12C renal) | TGI (SNB-19 CNS) | TGI (SR leukemia) | TGI (SW-620 colon) | TGI (T-47D breast) | TGI (TK-10 renal) | TGI (U251 CNS) | TGI (UACC-257 melanoma) | TGI (UACC-62 melanoma) | TGI (UO-31 renal)
2.39 µM: TGI (RXF 393 renal)
> 9.15 µM: TGI (SK-MEL-5 melanoma)
> 17.5 µM: TGI (HCC-2998 colon)
inactive: GI50 (786-0 renal) 1.09 µM | GI50 (ACHN renal) 2.02 µM | GI50 (BT-549 breast) 0.639 µM | GI50 (CAKI-1 renal) 0.477 µM | GI50 (DU-145 prostate) 0.502 µM | GI50 (EKVX NSCLC) 2.25 µM | GI50 (HCT-15 colon) 1.11 µM | GI50 (HOP-62 NSCLC) 1.13 µM | GI50 (MALME-3M melanoma) 0.721 µM | GI50 (MDA-MB-231 breast) 0.65 µM | GI50 (NCI-H226 lung) > 9.56 µM | GI50 (NCI-H23 lung) 1.04 µM | GI50 (NCI/ADR-RES ovarian) > 33.3 µM | GI50 (OVCAR-4 ovarian) > 8.99 µM | GI50 (OVCAR-8 ovarian) 0.46 µM | GI50 (RXF 393 renal) 0.471 µM | GI50 (SF-268 CNS) 0.593 µM | GI50 (SF-295 CNS) 0.579 µM | GI50 (SK-MEL-2 melanoma) 1.28 µM | GI50 (SK-MEL-5 melanoma) 0.83 µM | GI50 (SK-OV-3 ovarian) 0.897 µM | GI50 (SN12C renal) 1.03 µM | GI50 (SNB-19 CNS) 1.08 µM | GI50 (TK-10 renal) 2.25 µM | GI50 (UACC-257 melanoma) > 15.7 µM | GI50 (UACC-62 melanoma) 0.815 µM | GI50 (UO-31 renal) 3.39 µM
> 17.6 µM: TGI (NCI-H522 lung)
active: GI50 (A498 renal) 0.332 µM | GI50 (A549 NSCLC) 0.285 µM | GI50 (CCRF-CEM leukemia) 0.354 µM | GI50 (COLO 205 colon) 0.181 µM | GI50 (HCC-2998 colon) 0.289 µM | GI50 (HCT-116 colon) 0.0919 µM | GI50 (HL-60(TB) leukemia) 0.163 µM | GI50 (HS 578T breast) 0.239 µM | GI50 (HT29 colon) 0.095 µM | GI50 (IGROV1 ovarian) 0.404 µM | GI50 (K-562 leukemia) 0.17 µM | GI50 (KM12 colon) 0.191 µM | GI50 (LOX IMVI melanoma) 0.0935 µM | GI50 (M14 melanoma) 0.165 µM | GI50 (MCF7 breast) 0.0872 µM | GI50 (MDA-MB-435) 0.0394 µM | GI50 (MOLT-4 leukemia) 0.362 µM | GI50 (NCI-H460 lung) 0.101 µM | GI50 (NCI-H522 lung) 0.367 µM | GI50 (OVCAR-3 ovarian) 0.142 µM | GI50 (OVCAR-5 ovarian) 0.333 µM | GI50 (PC-3 prostate) 0.345 µM | GI50 (RPMI-8226 leukemia) 0.109 µM | GI50 (SF-539 CNS) 0.248 µM | GI50 (SNB-75 CNS) 0.0599 µM | GI50 (SR leukemia) 0.16 µM | GI50 (SW-620 colon) 0.188 µM | GI50 (T-47D breast) 0.335 µM | GI50 (U251 CNS) 0.316 µM
1.38 µM: TGI (M14 melanoma)
0.111 µM: TGI (MDA-MB-435)
> 6.73 µM: TGI (A498 renal)
0.469 µM: TGI (SNB-75 CNS)
1.99 µM: TGI (SF-539 CNS)
